According to patent US20090239894A1, “Stabilized aqueous solutions of ergoline compounds” (priority 2008, published 2009):
Where two headings read alike, the source gives them in different places.

Tests used:
[1] = cited from earlier work
[2] = Solubility in water / phosphate-buffered solution (pH 7.4)
[3] = 9% propylene glycol; for Average area (percent of lisuride peak area relative to total peak area): no buffer
Description: An aqueous solution of lisuride hydrogen maleate which additionally contained 9% propylene glycol was investigated. The active ingredient concentration was adjusted to 2 mg per 3 mL. No buffer system was added. The remaining procedure included weighing 33.3 mg of the active ingredient into a scaled 50 mL flask, then adding the propylene glycol (4.5 g) and also adding 40 mL water. The flask was agitated for several minutes and then exposed to ultrasound until the active ingredient was completely dissolved. The flask was cooled to room temperature and topped off with double-distilled water up to the mark.
The solution was poured into transparent glass ampoules with a volume of 1 mL. These ampoules were sealed airtight and wrapped with aluminum foil to protect them from light. The ampoules were each stored at 6-8° C., 25° C. and 40° C.

[4] = 60° C., one week, dark
Description: The additives used were propylene glycol and Cremophor ELP in concentrations between 1.00% and 10.00%.
The solutions were prepared by analogy with the procedure used in examples 1 and 2.
The solutions were stored in the dark in glass containers at 60° C. for one week.

[5] = propylene glycol as low-dose additive (less than 10%)
[6] = Description: Solutions of lisuride hydrogen maleate with a concentration of 2 mg active ingredient per 3 mL solution were investigated with regard to their temperature-dependent stability. These solutions were buffered using a citrate buffer system, so that the pH value of the pure medium was adjusted to 5.1, 4.5 and 3.5. Aqueous solutions of citric acid monohydrate and trisodium citrate dihydrate (0.53 mM each) were prepared.
Suitable mixing of these solutions yielded aqueous buffer systems with a pH of 4.5 and/or 3.5. After 33.3 mg lisuride hydrogen maleate had been weighed out in a scaled 50 mL flask, 40 mL of the corresponding buffer medium was added. The flasks were agitated for several minutes and then exposed to ultrasound for several minutes until the active ingredient was completely dissolved. The solutions were cooled to room temperature and topped off to the mark with buffer medium.
In the case of the more strongly basic medium (pH 5.1), a supply solution was prepared, containing citric acid monohydrate (0.38 mM) and trisodium citrate dihydrate (0.68 mM). This was used to dissolve the active ingredient. In principle, double-distilled water was used to prepare the solutions.
The resulting solutions were stored under three different conditions: under refrigeration at 6 to 8° C., at room temperature (25° C.) and at an elevated temperature of 40° C. The solutions were stored in sealed glass ampoules which were wrapped with aluminum foil for protection from light. After suitable intervals of time, samples were analyzed by means of a specific reverse phase HPLC method with UV detection (running time 30 min, retention time of lisuride ˜13 min).

CC(O)CO (centres unmarked) [propylene glycol, 1,2-propanediol (propylene glycol)]
estimated amount acceptable as a daily oral dose [1]: 25 mg/kg body weight

CCCN1C[C@@H](NC(=O)N(CC)CC)C[C@@H]2c3cccc4[nH]cc(c34)C[C@H]21 [proterguride]
solubility ([2]; free compound, phosphate-buffered solution (pH 7.4)): 2.6 mg/100 mL
solubility in water relative to lisuride ([2]; water): comparable to that of lisuride

CCN(CC)C(=O)N[C@H]1C=C2c3cccc4[nH]cc(c34)C[C@H]2N(C)C1.O=C(O)/C=C\C(=O)O [lisuride hydrogen maleate]
discoloration of the solutions ([3]; elevated temperature): slight yellow discoloration was observed only after a storage time of 90 days
Average area (percent of lisuride peak area relative to total peak area) ([3]; 6-8° C., t 0 d): 99.80%
Average area (percent of lisuride peak area relative to total peak area) ([3]; 6-8° C., t 7 d): 99.79%
Average area (percent of lisuride peak area relative to total peak area) ([3]; 6-8° C., t 30 d): 99.67%
Average area (percent of lisuride peak area relative to total peak area) ([3]; 6-8° C., t 90 d): 99.52%
Average area (percent of lisuride peak area relative to total peak area) ([3]; 6-8° C., t 180 d): 99.36%
Average area (percent of lisuride peak area relative to total peak area) ([3]; 25° C., t 0 d): 99.80%
Average area (percent of lisuride peak area relative to total peak area) ([3]; 25° C., t 7 d): 99.79%
Average area (percent of lisuride peak area relative to total peak area) ([3]; 25° C., t 30 d): 99.46%
Average area (percent of lisuride peak area relative to total peak area) ([3]; 25° C., t 90 d): 99.15%
Average area (percent of lisuride peak area relative to total peak area) ([3]; 25° C., t 180 d): 98.35%
Average area (percent of lisuride peak area relative to total peak area) ([3]; 40° C., t 0 d): 99.80%
Average area (percent of lisuride peak area relative to total peak area) ([3]; 40° C., t 7 d): 99.33%
Average area (percent of lisuride peak area relative to total peak area) ([3]; 40° C., t 30 d): 97.59%
Average area (percent of lisuride peak area relative to total peak area) ([3]; 40° C., t 90 d): 94.06%
Average area (percent of lisuride peak area relative to total peak area) ([3]; 40° C., t 180 d): 89.76%
active ingredient decomposed ([3]; refrigeration, 180 days): approximately 0.4%
remaining active ingredient content in comparison with the initial concentration ([3]; room temperature, 180 days): 98.4%
active ingredient decomposed ([3]; storage at 40° C.): approximately 10%
stability compared with solutions without propylene glycol (Example 1) ([3]; 6-8° C., 25° C. and 40° C.): significantly more stable
degradation of the active ingredient ([4]; 1% Cremophor ELP): 14.3%
degradation of the active ingredient ([4]; 10% Cremophor ELP): 21.3%
remaining active ingredient content ([4]; propylene glycol): 92.5%
solubility of the active ingredient with propylene glycol [5]: improved solubility
Average area (percent of lisuride peak area relative to total peak area) ([6]; citrate buffer pH 3.5, 6-8° C., t 0 d): 99.87%
Average area (percent of lisuride peak area relative to total peak area) ([6]; citrate buffer pH 3.5, 6-8° C., t 7 d): 99.92%
Average area (percent of lisuride peak area relative to total peak area) ([6]; citrate buffer pH 3.5, 6-8° C., t 30 d): 99.80%
Average area (percent of lisuride peak area relative to total peak area) ([6]; citrate buffer pH 3.5, 6-8° C., t 90 d): 99.57%
Average area (percent of lisuride peak area relative to total peak area) ([6]; citrate buffer pH 3.5, 6-8° C., t 180 d): 99.22%
Average area (percent of lisuride peak area relative to total peak area) ([6]; citrate buffer pH 3.5, 25° C., t 0 d): 99.87%
Average area (percent of lisuride peak area relative to total peak area) ([6]; citrate buffer pH 3.5, 25° C., t 7 d): 99.89%
Average area (percent of lisuride peak area relative to total peak area) ([6]; citrate buffer pH 3.5, 25° C., t 30 d): 99.37%
Average area (percent of lisuride peak area relative to total peak area) ([6]; citrate buffer pH 3.5, 25° C., t 90 d): 98.70%
Average area (percent of lisuride peak area relative to total peak area) ([6]; citrate buffer pH 3.5, 25° C., t 180 d): 94.14%
Average area (percent of lisuride peak area relative to total peak area) ([6]; citrate buffer pH 3.5, 40° C., t 0 d): 99.87%
Average area (percent of lisuride peak area relative to total peak area) ([6]; citrate buffer pH 3.5, 40° C., t 7 d): 98.89%
Average area (percent of lisuride peak area relative to total peak area) ([6]; citrate buffer pH 3.5, 40° C., t 30 d): 90.41%
Average area (percent of lisuride peak area relative to total peak area) ([6]; citrate buffer pH 3.5, 40° C., t 90 d): 73.37%
Average area (percent of lisuride peak area relative to total peak area) ([6]; citrate buffer pH 3.5, 40° C., t 180 d): 69.91%
Average area (percent of lisuride peak area relative to total peak area) ([6]; citrate buffer pH 4.5, 6-8° C., t 0 d): 99.79%
Average area (percent of lisuride peak area relative to total peak area) ([6]; citrate buffer pH 4.5, 6-8° C., t 7 d): 99.88%
Average area (percent of lisuride peak area relative to total peak area) ([6]; citrate buffer pH 4.5, 6-8° C., t 30 d): 99.73%
Average area (percent of lisuride peak area relative to total peak area) ([6]; citrate buffer pH 4.5, 6-8° C., t 90 d): 99.75%
Average area (percent of lisuride peak area relative to total peak area) ([6]; citrate buffer pH 4.5, 6-8° C., t 180 d): 99.11%
Average area (percent of lisuride peak area relative to total peak area) ([6]; citrate buffer pH 4.5, 25° C., t 0 d): 99.79%
Average area (percent of lisuride peak area relative to total peak area) ([6]; citrate buffer pH 4.5, 25° C., t 7 d): 99.84%
Average area (percent of lisuride peak area relative to total peak area) ([6]; citrate buffer pH 4.5, 25° C., t 30 d): 99.26%
Average area (percent of lisuride peak area relative to total peak area) ([6]; citrate buffer pH 4.5, 25° C., t 90 d): 98.14%
Average area (percent of lisuride peak area relative to total peak area) ([6]; citrate buffer pH 4.5, 25° C., t 180 d): 95.90%
Average area (percent of lisuride peak area relative to total peak area) ([6]; citrate buffer pH 4.5, 40° C., t 0 d): 99.79%
Average area (percent of lisuride peak area relative to total peak area) ([6]; citrate buffer pH 4.5, 40° C., t 7 d): 98.82%
Average area (percent of lisuride peak area relative to total peak area) ([6]; citrate buffer pH 4.5, 40° C., t 30 d): 94.96%
Average area (percent of lisuride peak area relative to total peak area) ([6]; citrate buffer pH 4.5, 40° C., t 90 d): 90.39%
Average area (percent of lisuride peak area relative to total peak area) ([6]; citrate buffer pH 4.5, 40° C., t 180 d): 87.71%
Average area (percent of lisuride peak area relative to total peak area) ([6]; citrate buffer pH 5.1, 6-8° C., t 0 d): 100.00%
Average area (percent of lisuride peak area relative to total peak area) ([6]; citrate buffer pH 5.1, 6-8° C., t 7 d): 99.90%
Average area (percent of lisuride peak area relative to total peak area) ([6]; citrate buffer pH 5.1, 6-8° C., t 30 d): 99.72%
Average area (percent of lisuride peak area relative to total peak area) ([6]; citrate buffer pH 5.1, 6-8° C., t 90 d): 99.59%
Average area (percent of lisuride peak area relative to total peak area) ([6]; citrate buffer pH 5.1, 6-8° C., t 180 d): 99.29%
Average area (percent of lisuride peak area relative to total peak area) ([6]; citrate buffer pH 5.1, 25° C., t 0 d): 100.00%
Average area (percent of lisuride peak area relative to total peak area) ([6]; citrate buffer pH 5.1, 25° C., t 7 d): 99.79%
Average area (percent of lisuride peak area relative to total peak area) ([6]; citrate buffer pH 5.1, 25° C., t 30 d): 99.36%
Average area (percent of lisuride peak area relative to total peak area) ([6]; citrate buffer pH 5.1, 25° C., t 90 d): 98.64%
Average area (percent of lisuride peak area relative to total peak area) ([6]; citrate buffer pH 5.1, 25° C., t 180 d): 95.45%
Average area (percent of lisuride peak area relative to total peak area) ([6]; citrate buffer pH 5.1, 40° C., t 0 d): 100.00%
Average area (percent of lisuride peak area relative to total peak area) ([6]; citrate buffer pH 5.1, 40° C., t 7 d): 98.86%
Average area (percent of lisuride peak area relative to total peak area) ([6]; citrate buffer pH 5.1, 40° C., t 30 d): 94.71%
Average area (percent of lisuride peak area relative to total peak area) ([6]; citrate buffer pH 5.1, 40° C., t 90 d): 90.99%
Average area (percent of lisuride peak area relative to total peak area) ([6]; citrate buffer pH 5.1, 40° C., t 180 d): 87.98%
decomposition of the active ingredient ([6]; citrate-buffered (pH 5.1, 4.5, 3.5), room temperature, within 180 days): 5%
decomposition of the active ingredient ([6]; citrate-buffered, storage at 40° C.): up to 30%
decomposition of the active ingredient ([6]; citrate-buffered, storage under refrigeration): approximately 0.7%
discoloration of the solutions ([6]; citrate-buffered, stored at 40° C.): significant yellow discoloration after only 30 days, turning brown after another 60 days

CCN(CC)C(=O)N[C@H]1C=C2c3cccc4[nH]cc(c34)C[C@H]2N(C)C1 [lisuride]
solubility (estimated) ([2]; free lisuride, calculated from solubility data of active ingredients/salts (Zimmermann 1983)): ~2.2 mg/100 mL
